Test results reported in the supplement of paper PMC11061612.

What was measured:
Capivasertib = compound: C1CN(CCC1(C(=O)N[C@@H](CCO)C2=CC=C(C=C2)Cl)N)C3=NC=NC4=C3C=CN4 [Capivasertib]; conditions: max 10 µM
Procedure, shortened: (§1)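 Cancer cell lines were seeded in 1536-well plates in 7.5 μl DMEM/F12 or RPMI with 10% FBS, held 24 hours at 37°C and 5% CO2, then dosed for 72 hours (final DMSO typically 0.2%). Viability was read by CellTiter-Glo 2.0 luminescence and scaled between blank-well and DMSO-well means. The single-agent IC50 comes from dose responses fitted to a two-parameter logistic curve with a non-linear mixed effects model.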

AZD1775 = compound: C=CCn1c(=O)c2cnc(Nc3ccc(N4CCN(C)CC4)cc3)nc2n1-c1cccc(C(C)(C)O)n1 [AZD1775]; conditions: max 3 µM
Procedure, shortened: as §1

Trametinib = compound: CC(=O)Nc1cccc(-n2c(=O)n(C3CC3)c(=O)c3c(Nc4ccc(I)cc4F)n(C)c(=O)c(C)c32)c1 [Trametinib]; conditions: max 1 µM
Procedure, shortened: as §1

Palbociclib = compound: CC(=O)c1c(C)c2cnc(Nc3ccc(N4CCNCC4)cn3)nc2n(C2CCCC2)c1=O [Palbociclib]; conditions: max 10 µM
Procedure, shortened: as §1

AZD1390 = compound: CC(C)n1c(=O)n(C)c2cnc3cc(F)c(-c4ccc(OCCCN5CCCCC5)nc4)cc3c21 [AZD1390]; conditions: max 0.3 µM
Procedure, shortened: as §1

Venetoclax = compound: CC1(C)CCC(CN2CCN(c3ccc(C(=O)NS(=O)(=O)c4ccc(NCC5CCOCC5)c([N+](=O)[O-])c4)c(Oc4cnc5[nH]ccc5c4)c3)CC2)=C(c2ccc(Cl)cc2)C1 [Venetoclax]; conditions: max 1 µM
Procedure, shortened: as §1

Dasatinib = compound: CC1=C(C(=CC=C1)Cl)NC(=O)C2=CN=C(S2)NC3=CC(=NC(=N3)C)N4CCN(CC4)CCO [Dasatinib]; conditions: max 2 µM
Procedure, shortened: as §1

SG3199 = compound: CC1=CN2[C@@H](C1)C=NC3=CC(=C(C=C3C2=O)OC)OCCCCCOC4=C(C=C5C(=C4)N=C[C@@H]6CC(=CN6C5=O)C)OC [SG3199]; conditions: max 0.001 µM
Procedure, shortened: as §1

AZD2811 = compound: CCN(CCO)CCCOc1ccc2c(Nc3cc(CC(=O)Nc4cccc(F)c4)[nH]n3)ncnc2c1 [AZD2811]; conditions: max 1 µM
Procedure, shortened: as §1

SN-38 = compound: CCc1c2c(nc3ccc(O)cc13)-c1cc3c(c(=O)n1C2)COC(=O)[C@]3(O)CC [SN-38]; conditions: max 0.3 µM
Procedure, shortened: as §1

AZD0156 = compound: CN(C)CCCOc1ccc(-c2ccc3ncc4c(c3c2)n(C2CCOCC2)c(=O)n4C)cn1 [AZD0156]; conditions: max 3 µM
Procedure, shortened: as §1

AZD4320 = compound: CN(CC[C@H](CSC1=CC=CC=C1)NC2=C(C=C(C=C2)S(=O)(=O)NC(=O)C3=CC=C(C=C3)N4CCC(CC4)[C@H](C5=CC=CC=C5C6=CC=C(C=C6)Cl)O)S(=O)(=O)C(F)(F)F)CCO [AZD4320]; conditions: max 1 µM
Procedure, shortened: as §1

Alisertib = compound: COc1cc(Nc2ncc3c(n2)-c2ccc(Cl)cc2C(c2c(F)cccc2OC)=NC3)ccc1C(=O)O [Alisertib]; conditions: max 10 µM
Procedure, shortened: as §1

Gefitinib = compound: COc1cc2ncnc(Nc3ccc(F)c(Cl)c3)c2cc1OCCCN1CCOCC1 [Gefitinib]; conditions: max 10 µM
Procedure, shortened: as §1

Prexasertib = compound: COc1cccc(OCCCN)c1-c1cc(Nc2cnc(C#N)cn2)n[nH]1 [Prexasertib]; conditions: max 1 µM
Procedure, shortened: as §1

Doxorubicin = compound: COc1cccc2c1C(=O)c1c(O)c3c(c(O)c1C2=O)C[C@@](O)(C(=O)CO)C[C@@H]3O[C@H]1C[C@H](N)[C@H](O)[C@H](C)O1 [Doxorubicin]; conditions: max 1 µM
Procedure, shortened: as §1

AZD5153 = compound: COc1nnc2ccc(N3CCC(c4ccc(OCCN5CCN(C)C(=O)[C@H]5C)cc4)CC3)nn12 [AZD5153]; conditions: max 1 µM
Procedure, shortened: as §1

Lapatinib = compound: CS(=O)(=O)CCNCc1ccc(-c2ccc3ncnc(Nc4ccc(OCc5cccc(F)c5)c(Cl)c4)c3c2)o1 [Lapatinib]; conditions: max 10 µM
Procedure, shortened: as §1

AZD8186 = compound: C[C@@H](Nc1cc(F)cc(F)c1)c1cc(C(=O)N(C)C)cc2c(=O)cc(N3CCOCC3)oc12 [AZD8186]
Procedure, shortened: as §1

Crizotinib = compound: C[C@@H](Oc1cc(-c2cnn(C3CCNCC3)c2)cnc1N)c1c(Cl)ccc(F)c1Cl [Crizotinib]; conditions: max 10 µM
Procedure, shortened: as §1

Savolitinib = compound: C[C@@H](c1ccc2nccn2c1)n1nnc2ncc(-c3cnn(C)c3)nc21 [Savolitinib]; conditions: max 1 µM
Procedure, shortened: as §1

AZD6738 = compound: C[C@@H]1COCCN1C2=NC(=NC(=C2)C3(CC3)[S@](=N)(=O)C)C4=C5C=CNC5=NC=C4 [AZD6738]; conditions: max 10 µM
Procedure, shortened: as §1

AZD5991 = compound: Cc1c2c(nn1C)CSCc1cc(n(C)n1)CSc1cc(c3ccccc3c1)OCCCc1c(C(=O)O)n(C)c3c-2c(Cl)ccc13 [AZD5991]; conditions: max 1 µM
Procedure, shortened: as §1

AZD7648 = compound: Cc1cc2ncnn2cc1Nc1ncc2c(n1)n(C1CCOCC1)c(=O)n2C [AZD7648]; conditions: max 10 µM
Procedure, shortened: as §1

Taselisib = compound: Cc1nc(-c2cn3c(n2)-c2ccc(-c4cnn(C(C)(C)C(N)=O)c4)cc2OCC3)n(C(C)C)n1 [Taselisib]; conditions: max 10 µM
Procedure, shortened: as §1

Selumetinib = compound: Cn1cnc2c(F)c(Nc3ccc(Br)cc3Cl)c(C(=O)NOCCO)cc21 [Selumetinib]; conditions: max 10 µM
Procedure, shortened: as §1

Olaparib = compound: O=C(c1cc(Cc2n[nH]c(=O)c3ccccc23)ccc1F)N1CCN(C(=O)C2CC2)CC1 [Olaparib]; conditions: max 10 µM
Procedure, shortened: as §1

Carboplatin = compound: C1CC(C1)(C(=O)[O-])C(=O)[O-].N.N.[Pt+2] [Carboplatin]; conditions: max 10 µM
Procedure, shortened: as §1

AZD5363 = compound: C1CN(CCC1(C(=O)N[C@@H](CCO)C2=CC=C(C=C2)Cl)N)C3=NC=NC4=C3C=CN4 [AZD5363]; conditions: max 10 µM
Procedure, shortened: as §1

Paclitaxel = compound: CC(=O)O[C@H]1C(=O)[C@@]2(C)[C@H]([C@H](OC(=O)c3ccccc3)[C@]3(O)C[C@H](OC(=O)[C@H](O)[C@@H](NC(=O)c4ccccc4)c4ccccc4)C(C)=C1C3(C)C)[C@]1(OC(C)=O)CO[C@@H]1C[C@@H]2O [Paclitaxel]; conditions: max 3 µM
Procedure, shortened: as §1

Etoposide = compound: COc1cc([C@@H]2c3cc4c(cc3[C@@H](O[C@@H]3O[C@@H]5CO[C@@H](C)O[C@H]5[C@H](O)[C@H]3O)[C@H]3COC(=O)[C@H]23)OCO4)cc(OC)c1O [Etoposide]; conditions: max 10 µM
Procedure, shortened: as §1

SRA737 = compound: N#Cc1cnc(Nc2cc(NC[C@H]3CNCCO3)c(C(F)(F)F)cn2)cn1 [SRA737]; conditions: max 10 µM
Procedure, shortened: as §1

MK-2206 = compound: NC1(c2ccc(-c3nc4ccn5c(=O)[nH]nc5c4cc3-c3ccccc3)cc2)CCC1 [MK-2206]; conditions: max 10 µM
Procedure, shortened: as §1

Gemcitabine = compound: Nc1ccn([C@@H]2O[C@H](CO)[C@@H](O)C2(F)F)c(=O)n1 [Gemcitabine]; conditions: max 0.3 µM
Procedure, shortened: as §1

[1] = compound: O=C(Nc1ccc2[nH]nc(-c3ccncc3)c2c1)[C@@H]1CCN(CC(=O)N2CCN(c3ccc(-c4ncccn4)cc3)CC2)C1; conditions: max 5 µM
Procedure, shortened: as §1

5-Fluorouracil = compound: O=c1[nH]cc(F)c(=O)[nH]1 [5-Fluorouracil]; conditions: max 20 µM
Procedure, shortened: as §1

Row | Cell Line | IC50, cell viability 72 h (Capivasertib) | IC50, cell viability 72 h (AZD1775) | IC50, cell viability 72 h (Trametinib) | IC50, cell viability 72 h (Palbociclib) | IC50, cell viability 72 h (AZD1390) | IC50, cell viability 72 h (Venetoclax) | IC50, cell viability 72 h (Dasatinib) | IC50, cell viability 72 h (SG3199) | IC50, cell viability 72 h (AZD2811) | IC50, cell viability 72 h (SN-38) | IC50, cell viability 72 h (AZD0156) | IC50, cell viability 72 h (AZD4320) | IC50, cell viability 72 h (Alisertib) | IC50, cell viability 72 h (Gefitinib) | IC50, cell viability 72 h (Prexasertib) | IC50, cell viability 72 h (Doxorubicin) | IC50, cell viability 72 h (AZD5153) | IC50, cell viability 72 h (Lapatinib) | IC50, cell viability 72 h (AZD8186; max 3 µM) | IC50, cell viability 72 h (Crizotinib) | IC50, cell viability 72 h (Savolitinib) | IC50, cell viability 72 h (AZD6738) | IC50, cell viability 72 h (AZD5991) | IC50, cell viability 72 h (AZD7648) | IC50, cell viability 72 h (Taselisib) | IC50, cell viability 72 h (Selumetinib) | IC50, cell viability 72 h (Olaparib) | IC50, cell viability 72 h (Carboplatin) | IC50, cell viability 72 h (AZD5363) | IC50, cell viability 72 h (Paclitaxel) | IC50, cell viability 72 h (Etoposide) | IC50, cell viability 72 h (AZD8186; max 10 µM) | IC50, cell viability 72 h (SRA737) | IC50, cell viability 72 h (MK-2206) | IC50, cell viability 72 h (Gemcitabine) | IC50, cell viability 72 h [1] | IC50, cell viability 72 h (5-Fluorouracil)
1 | 23132-87 (Gastric Carcinoma) | > 10 µM | 0.375 µM | > 1 µM | > 10 µM | > 0.3 µM | > 1 µM | > 2 µM | > 0.001 µM | > 1 µM | 0.0221 µM | > 3 µM | > 1 µM | > 10 µM | > 10 µM | 0.0326 µM | 0.369 µM | > 1 µM | > 10 µM | > 3 µM | > 10 µM | > 1 µM | 4.79 µM | 0.348 µM | > 10 µM | > 10 µM | > 10 µM | > 10 µM | – | – | – | – | – | – | – | – | – | –
2 | CAL-120 (Breast Carcinoma) | > 10 µM | 1.62 µM | > 1 µM | > 10 µM | > 0.3 µM | > 1 µM | > 2 µM | > 0.001 µM | > 1 µM | 0.296 µM | > 3 µM | 0.825 µM | > 10 µM | > 10 µM | 0.656 µM | > 1 µM | > 1 µM | > 10 µM | > 3 µM | > 10 µM | > 1 µM | > 10 µM | > 1 µM | > 10 µM | > 10 µM | > 10 µM | > 10 µM | – | – | – | – | – | – | – | – | – | –
3 | FADU (Head and Neck Carcinoma) | > 10 µM | > 3 µM | > 1 µM | > 10 µM | > 0.3 µM | > 1 µM | > 2 µM | > 0.001 µM | > 1 µM | 0.0063 µM | > 3 µM | > 1 µM | > 10 µM | 9.02 µM | 0.0791 µM | 0.312 µM | > 1 µM | 3.16 µM | > 3 µM | > 10 µM | > 1 µM | > 10 µM | 0.407 µM | > 10 µM | 3.32 µM | > 10 µM | > 10 µM | – | – | – | – | – | – | – | – | – | –
4 | GB-1 (Glioblastoma) | > 10 µM | > 3 µM | > 1 µM | > 10 µM | > 0.3 µM | > 1 µM | > 2 µM | > 0.001 µM | > 1 µM | 0.0327 µM | > 3 µM | > 1 µM | > 10 µM | > 10 µM | 0.951 µM | > 1 µM | > 1 µM | > 10 µM | > 3 µM | > 10 µM | > 1 µM | > 10 µM | > 1 µM | > 10 µM | 9.75 µM | > 10 µM | > 10 µM | – | – | – | – | – | – | – | – | – | –
5 | GP5d (Colorectal Carcinoma) | 1.5 µM | 0.542 µM | 0.0174 µM | > 10 µM | > 0.3 µM | > 1 µM | > 2 µM | > 0.001 µM | 0.764 µM | 0.073 µM | > 3 µM | > 1 µM | 5.02 µM | > 10 µM | 0.0233 µM | 0.552 µM | 0.168 µM | > 10 µM | > 3 µM | 6.99 µM | > 1 µM | 3.64 µM | 0.329 µM | > 10 µM | 0.254 µM | 0.34 µM | > 10 µM | – | – | – | – | – | – | – | – | – | –
6 | RKN (Other Solid Carcinomas) | – | 2.3 µM | > 1 µM | > 10 µM | > 0.3 µM | > 1 µM | 1.74 µM | > 0.001 µM | > 1 µM | > 0.3 µM | > 3 µM | > 1 µM | > 10 µM | > 10 µM | 0.267 µM | > 1 µM | > 1 µM | > 10 µM | – | > 10 µM | > 1 µM | > 10 µM | > 1 µM | > 10 µM | > 10 µM | > 10 µM | > 10 µM | > 10 µM | > 10 µM | 0.0408 µM | > 10 µM | > 10 µM | > 10 µM | > 10 µM | > 0.3 µM | > 5 µM | > 20 µM
